≈ marks a conversion by molar mass, not a printed value.

By ED50 is commonly meant the dose at which the effect has come halfway, by size or by number of responders. Read a high ED50 as a need for a large dose.

The test system of test [1] is Streptococcus pyogenes Aronson. Kind of test: Antibiotic activity in vitro, agar dilution method in DST agar (MIC). The test is classed as cell-based. On the technique in general: In agar dilution, organisms are placed on agar that contains the substance at set levels.
Another test deals with Escherichia coli 205. Described as above. The test is classed as cell-based.
The test system of test [2] is Pseudomonas aeruginosa ATCC 12055. Described as above. The test is classed as cell-based. The note with it: ATCC12055.
The subject of test [3] is Escherichia coli 205 K 1075. Nature of the test: Chemotherapeutic efficacy in vivo against systemic infection in the mouse (ED50). Particulars: 205K1075, sc; s.c.; systemic infection with Escherichia coli 205 K 1075 in female SPF, MF2 mice. The text has this: (§1) B. Die chemotherapeutische Wirksamkeit in vivo gegen systemische Infektionen in weiblichen SPF, MF2 Mäusen wurde nach der Methode von Zak, 0., et al., 1979, Drugs Exptl. Clin. Res. 5, 45-59, ermittelt. Die gefundenen ED50-Werte in Milligramm Substanz pro Kilogramm Maus (mg/kg) gegen eine Anzahl von Mikroorganismen werden für die subcutan (s.c.) applizierten Testverbindungen in der Tabelle 2 angegeben.

The subject of test [4] is Pseudomonas aeruginosa ATCC 12055. Described as above. The note with it: ATCC12055, sc; s.c.; systemic infection with Pseudomonas aeruginosa ATCC 12055 in female SPF, MF2 mice.
Source text: as §1

Test [5] has as its system Clostridium perfringens (anaerob). Kind of test: microbe, parasite or virus in culture. The test is classed as cell-based.

Take `CO/N=C(\C(=O)N[C@@H]1C(=O)N2C(C(=O)[O-])=C(C[n+]3cccn3C)CS[C@H]12)c1nsc(N)n1` [Verbindung 4, 7β-[2-(5-Amino-1,2,4-thiadiazol-3-yl)-2-Z-methoxyiminoacetamido]-3-(2-methyl-1-pyrazoliomethyl)-3-cephem-4-carboxylat]: the MIC turned out to be 0.1 µg/mL (≈ 0.209 µM) in test [1], 0.1 µg/mL (≈ 0.209 µM) in the test on Escherichia coli 205 and 0.5 µg/mL (≈ 1.04 µM) in test [2]. Also, the ED50 came out at 2.4 mg/kg in test [3] and 30 mg/kg in test [4].
As for `CO/N=C(\C(=O)N[C@@H]1C(=O)N2C(C(=O)[O-])=C(C[n+]3cccc(Br)c3)CS[C@H]12)c1nsc(N)n1` [Verbindung 5, 7β-[2-(5-Amino-1,2,4-thiadiazol-3-yl)-2-Z-methoxyiminoacetamido]-3--(3-brompyridiniomethyl)-3-cephem-4-carboxylat], the MIC in test [1] worked out at 0.05 µg/mL (≈ 0.0902 µM); against Escherichia coli 205 it was 0.1 µg/mL (≈ 0.18 µM); in test [2], 0.5 µg/mL (≈ 0.902 µM); in test [5], 0.01 µg/mL (≈ 0.018 µM). For the same compound, the ED50 was 0.9 mg/kg in test [3] and 10 to 30 mg/kg in test [4].
In the case of `CC(C)(O/N=C(\C(=O)N[C@@H]1C(=O)N2C(C(=O)[O-])=C(C[n+]3cccc(CC(=O)O)c3)CS[C@H]12)c1nsc(N)n1)C(=O)O` [Verbindung 2, 7β-[2-(5-Amino-1,2,4-thiadiazol-3-yl)-2-Z-2-carboxyprop-2-yloxy-iminoacetamido]-3-(3-carboxymethylpyridiniomethyl)-3-cephem-4-carboxylat], the MIC was determined as 1 µg/mL (≈ 1.65 µM) in test [1], 1 µg/mL (≈ 1.65 µM) with Escherichia coli 205, 0.5 µg/mL (≈ 0.826 µM) in test [2] and 0.1 µg/mL (≈ 0.165 µM) in test [5]. Further, the median effective dose (ED50) in test [3] was 2 mg/kg; in test [4], ≥ 30 mg/kg.
Take `Cn1ccc[n+]1CC1=C(C(=O)[O-])N2C(=O)[C@@H](NC(=O)/C(=N\OC(C)(C)C(=O)O)c3nsc(N)n3)[C@H]2SC1` [Verbindung 3, 7ß-[2-(5-Amino-1,2,4-thiadiazol-3-yl)-2-Z-2-carboxyprop-2-yloxy-iminoacetamido]-3-(2-methyl-1-pyrazoliomethyl)-3-cephem-4-carboxylat]: the MIC is 0.5 µg/mL (≈ 0.908 µM) in test [1], 0.5 µg/mL (≈ 0.908 µM) against Escherichia coli 205, 2 µg/mL (≈ 3.63 µM) in test [2] and 0.05 µg/mL (≈ 0.0908 µM) in test [5]. Besides, the median effective dose (ED50) came out at 5 mg/kg in test [3] and 10 mg/kg in test [4].
On to `CO/N=C(\C(=O)N[C@@H]1C(=O)N2C(C(=O)[O-])=C(C[n+]3ccc(CO)cc3)CS[C@H]12)c1nsc(N)n1` [Verbindung 6, 7ß-[2-(5-Amino-1,2,4-thiadiazol-3-yl)-2-Z-methoxyiminoacetamido]-3-(4-hydroxymethylpyridiniomethyl)-3-cephem-4-carboxylat], for which the MIC against Escherichia coli 205 worked out at 0.05 µg/mL (≈ 0.0989 µM); in test [2] it was 0.1 µg/mL (≈ 0.198 µM); in test [5], 0.01 µg/mL (≈ 0.0198 µM). The same compound registered an ED50 in test [4] of 3 to 10 mg/kg.
Take `CO/N=C(\C(=O)N[C@@H]1C(=O)N2C(C(=O)[O-])=C(C[n+]3ccc(C(=O)O)cc3)CS[C@H]12)c1nsc(N)n1` [Verbindung 1, 7ß-[2-(5-Amino-1,2,4-thiadiazol-3-yl)-2-Z-methoxyiminoacetamido]-3-(4-carboxypyridiniomethyl)-3-cephem-4-carboxylat]: the MIC is 0.1 µg/mL (≈ 0.192 µM) in test [1], 0.05 µg/mL (≈ 0.0962 µM) against Escherichia coli 205 and 1 µg/mL (≈ 1.92 µM) in test [2]. Also, the ED50 in test [3] was found to be 0.9 mg/kg; in test [4] it was 6 mg/kg.

Source of the values: patent EP0047977A2, “Cephalosporin derivatives, process for their preparation, pharmaceutical compositions containing them and their use” (CIBA-GEIGY AG, priority 1980, dated 1982).
